The format of data set [1] is physicochemical. As to conditions: 30 mg/mL, CLSM and fast FLIM.
The next data set is described as follows: Droplet microstructure. In kind it is physicochemical. As to conditions: CLSM and fast FLIM with SBD dye, 448 nm excitation.
Data set [2] in a line: Encapsulation efficiency of guest fluorophores by droplets. The class given is physicochemical.
The nature of data set [3]: Redox controlled droplet formation through LLPS. The class given is physicochemical.

WCRY: the “droplet microstructure before oxidation” value in data set [1] (pH 7.5 (1 M NaOH), SBD dye) is “forms homogeneous droplets”. For the same substance, the “droplet microstructure after oxidation by H2O2” value in data set [1] (pH 7.5, 1 μL H2O2 (1M), 5 mins at room temperature) is listed as “transform into the multiphasic droplets”. With WGWW, the “droplet microstructure (core-shell or homogeneous)” value in “Droplet microstructure” is “show similar results with the R group”. With WYWW, the “behaviour of droplets when the fluorophores were added, pH 7.5” value in data set [2] (pH 7.5, fluorophores added) was “tend to aggregates”. The “behaviour of droplets when the fluorophores were added, pH 9.0” value in data set [2] (pH 9.0, fluorophores added) is on record as “relatively stable”. Take YCGY: the “solubility in aqueous solution” value in data set [3] (aqueous solution, words only) is reported as “very good solubility”. In data set [3] (oxidised peptide, then DTT, 5 mins at room temperature, CLSM / bright field), the “state of the droplet emulsion after adding DTT” value is recorded as “clear solution”. In addition, the “concentration at which the peptide still does not undergo LLPS” value in data set [3] (reduced (thiol) peptide, aqueous solution) came out at 80000 µg/mL. YGYY: the “droplet microstructure (core-shell or homogeneous)” value in “Droplet microstructure” is listed as “show similar results with the R group”.

On to YRYY, for which the “droplet microstructure (core-shell or homogeneous)” value in “Droplet microstructure” is on record as “formed homogeneous droplets”.

Source of the values: paper doi:10.1101/2024.07.07.602414v1 (bioRxiv, 2024).
